Source: patent US20240174690A1, “ANNULATED 2-AMINO-3-CYANO THIOPHENES AND DERIVATIVES FOR THE TREATMENT OF CANCER” (BOEHRINGER INGELHEIM INTERNATIONAL GMBH, priority 2021, published 2024)
Read-outs that look alike come from different tables or passages of the source.

Legend:
[1] = system: KRAS G12V-dependent Ba/F3 cells; assay: Ba/F3 proliferation assay, KRAS G12V; type: cell-based; details: Mus musculus, BaF3, 72 h, AlamarBlue;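 further: proliferation IC50 in KRAS G12V-dependent Ba/F3 cells read by AlamarBlue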
Outline: (§1)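 IL-3-independent Ba/F3 lines driven by transduced KRAS G12C, G12D or G12V, with puromycin withdrawn about ten days before testing. Viability after compound treatment measured by AlamarBlue fluorescence in duplicate, and values derived by curve fitting.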

[2] = system: SAS cells; assay: SAS CTG proliferation assay (120 h) (HNSCC, wt amplified); type: cell-based
Outline: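 Viability measured by CellTiter-Glo luminescence, normalized to DMSO wells, after 120 h compound treatment of SAS cells. Cells grown in DMEM:F12 plus 10% FCS at 300 cells per well, dosed the day after seeding. Four-parameter fit gives IC50.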

[3] = system: NCI-H358 cells; assay: NCI-H358 CTG proliferation assay (120 h) (NSCLC, G12C); type: cell-based, human; details: Homo sapiens
Outline: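 IC50 values derive from four-parameter nonlinear regression of CellTiter-Glo viability (RLU relative to DMSO wells) after 120 h of exposure. Cells were plated in RPMI-1640 + 10% FCS at 2000 per well (assay 1) or 200 per well (assay 2). Untreated cells were measured at compound addition as T0.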

[4] = system: SK-CO-1 cells; assay: SK-CO-1 CTG proliferation assay (120 h) (CRC, G12V); type: cell-based; details: Homo sapiens; SK-CO-1 cells (CRC, G12V), CTG 120 h
Outline: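 Compound exposure lasted 120 h in KRAS G12V SK-CO-1 cells seeded overnight at 500 cells/well in 10% FCS EMEM. CellTiter-Glo RLU normalised to DMSO wells gave percent viability, and a four-parameter model fit yielded IC50.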

[5] = system: LOVO cells; assay: LOVO CTG proliferation assay (120 h) (CRC, G13D); type: cell-based; details: Homo sapiens, CTG 120 h
Outline: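 IC50 comes from a four-parameter fit of CellTiter-Glo viability, expressed as RLU relative to DMSO wells. Compound exposure lasted 120 h in LOVO cells seeded the day before at 1000 cells/well in DMEM with 10% fetal calf serum.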

[6] = system: KRAS G12C-dependent Ba/F3 cells; assay: Ba/F3 proliferation assay, KRAS G12C; type: cell-based; details: Mus musculus, BaF3, 72 h, AlamarBlue
Outline: as §1

[7] = assay 2, CTG, read-out: H358 (assay 2) IC50
[8] = assay 1, CTG, read-out: H358 (assay 1) IC50

IC50 [1] [nM] | IC50 [3, 7] [nM] | IC50 [4] [nM] | IC50 [5] [nM] | IC50 [6] [nM] | IC50 [3, 8] [nM] | Structure (SMILES) | IC50 [2] [nM]
3 | 303 | 111 | 159 | 3 | – | C[C@H](Oc1cc(-n2ccnn2)nc(-c2onc3c2CCC[C@@]32CCCc3sc(N)c(C#N)c32)n1)[C@@H]1CCCN1C [I-32] | 52
1680 | 457 | 5730 | 1690 | 1290 | – | CN[C@H]1CCN(c2cc(O[C@@H](C)[C@@H]3CCCN3C)nc(-c3noc4c3CCC[C@@]43CCCc4sc(N)c(C#N)c43)n2)C1 [II-35] | 4730
4 | 4 | 14 | 23 | 4 | – | CO[C@H]1CCN(C)[C@@H]1[C@H](C)Oc1cc(-n2ccc(CC(=O)NC(C)C)n2)nc(-c2onc3c2CCC[C@@]32CCCc3sc(N)c(C#N)c32)n1 [I-48] | 13
980 | 1520 | 910 | 703 | 490 | – | C[C@H](Oc1cc(N2CCNC3(CCCC3)C2)nc(-c2noc3c2CCC[C@@]32CCCc3sc(N)c(C#N)c32)n1)[C@@H]1CCCN1C [II-41] | 2110
166 | 99 | 398 | 334 | 112 | – | [2H]C([2H])([2H])N1C[C@H](F)C[C@H]1[C@H](C)Oc1cc(N2CCNC3(CC3)C2)nc(-c2noc3c2CCC[C@@]32CCCc3sc(N)c(C#N)c32)n1 [II-208] | 718
8 | 117 | 46 | 120 | 37 | – | C[C@H](Oc1cc(-c2ccn(C[C@@H]3CCCO3)n2)nc(-c2noc3c2CCC[C@@]32CCCc3sc(N)c(C#N)c32)n1)[C@@H]1CCCN1C [II-43] | 24
164 | 2050 | 600 | 459 | 240 | – | C[C@H](Oc1cc(N2CC[C@@H](N(C)C)C2)nc(-c2noc3c2CCC[C@@]32CCCc3sc(N)c(C#N)c32)n1)[C@@H]1CCCN1C [II-47] | 2620
9 | 10 | 20 | 31 | 9 | 31 | C[C@H](Oc1cc([C@@H]2CCOC2)nc(-c2onc3c2CCC[C@@]32CCCc3sc(N)c(C#N)c32)n1)[C@@H]1CCCN1C [I-22] | 33
895 | 1450 | 2070 | 354 | 613 | – | C[C@H](Oc1cc(N2CCN(C)C3(CC3)C2)nc(-c2onc3c2CCC[C@@]32CCCc3sc(N)c(C#N)c32)n1)[C@@H]1C[C@@H](F)CN1C [I-39] | 1200
422 | 134 | 617 | 186 | 373 | – | C[C@@H]1CN(c2cc(O[C@@H](C)[C@@H]3C[C@@H](F)CN3C)nc(-c3noc4c3CCC[C@@]43CCCc4sc(N)c(C#N)c43)n2)CC2(CC2)N1 [II-17] | 1030
57 | 188 | 357 | 1060 | 92 | – | C[C@H](Oc1cc(-c2ccc(N)nc2)nc(-c2onc3c2CCC[C@@]32CCCc3sc(N)c(C#N)c32)n1)[C@@H]1CCCN1C [I-25] | 285
3 | 2 | 11 | 21 | 5 | 17 | C[C@H](Oc1cc(-n2ccc(C(=O)N3CCCC3)n2)nc(-c2noc3c2CCC[C@@]32CCCc3sc(N)c(C#N)c32)n1)[C@@H]1CCCN1C [II-19] | 132
642 | > 25000 | 1790 | 6600 | 606 | 969 | C[C@H](Oc1cc(N2CCNCC2)nc(-c2noc3c2CCC[C@@]32CCCc3sc(N)c(C#N)c32)n1)[C@@H]1CCCN1C [II-45] | 530
1 | 1 | 7 | 29 | 2 | – | CO[C@H]1CCN(C)[C@@H]1[C@H](C)Oc1cc(-n2ccc(C(=O)N[C@@H]3CCOC3)n2)nc(-c2onc3c2CCC[C@@]32CCCc3sc(N)c(C#N)c32)n1 [I-53] | 13
5 | 163 | 67 | 101 | 9 | – | Cc1nc(-c2cc(O[C@@H](C)[C@@H]3CCCN3C)nc(-c3onc4c3CCC[C@@]43CCCc4sc(N)c(C#N)c43)n2)cs1 [I-24] | 77
1 | 4 | 7 | 32 | 1 | – | CO[C@H]1CCN(C)[C@@H]1[C@H](C)Oc1cc(-n2ccc(C(=O)N[C@H]3CCOC3)n2)nc(-c2onc3c2CCC[C@@]32CCCc3sc(N)c(C#N)c32)n1 [I-54] | 17
4 | 4 | 21 | 49 | 5 | – | C[C@H](Oc1cc(-n2ccc(C(=O)N(C)C3COC3)n2)nc(-c2onc3c2CCC[C@@]32CCCc3sc(N)c(C#N)c32)n1)[C@@H]1CCCN1C [I-60] | 40
10 | 287 | 185 | 298 | 14 | – | C[C@H](Oc1cc(-n2ccnc2)nc(-c2onc3c2CCC[C@@]32CCCc3sc(N)c(C#N)c32)n1)[C@@H]1CCCN1C [I-20] | 35
